A short description of series [1]: Bioadhesion in liquid phase: binding to cysteine, assayed by HPLC. Conditions: 1 to 2 minutes, Ethanol-1×PBS pH 6.8 (pH 6.0 for compound #23). On the procedure:
The compounds bio adhesion was carried out in solution, for the protein binding, and for the specific binding of sulfhydryl-reactive chemical groups of cysteine. The compounds were mixed either with an equimolar solution of cysteine (two molar equivalent solution of cysteine for the compounds including two maleimides) or an excess of cysteine solution (five or ten times molar compound concentration) and were incubated 1 to 2 minutes in an Ethanol-1×PBS, pH 6.8 solution and in Ethanol-1×PBS, pH 6.0 solution for the compound #23.
The compound and the compound bound to the cysteine were identified by LC-MSD (Agilent 1260 Infinity II equipped with an Uptisphere strategy C18 or SunFire C18 column) and assayed by HPLC using an Agilent Infinity II Prime UHPLC UV detector system. The separation was achieved by using a gradient phase of water and acetonitrile on an Agilent Poroshell 120 EC-C18 column (3×100 mm, 2.7 μM).

Series [2] can be described thus: λmax UV absorbance in solution. It counts as physicochemical. On the procedure: λmax UV absorbance of diethylamino hydroxybenzoyl hexyl benzoate in ethanol/DMSO 9/1 was measured at 357 nm and λmax UV absorbance of Compound #16 was measured at 357 nm.
λmax UV absorbance of diethylamino hydroxybenzoyl hexyl benzoate in ethanol/DMSO 9/1 was measured at 357 nm and λmax UV absorbance of Compound #17 was measured at 357 nm.
λmax UV absorbance of Octocrylene in ethanol/DMSO 9/1 was measured at 305 nm and λmax UV absorbance of Compound #18 was measured at 293 nm.
λmax UV absorbance of Octocrylene in ethanol/DMSO 9/1 was measured at 305 nm and λmax UV absorbance of Compound #19 was measured at 308 nm.
λmax UV absorbance of Ecamsule in Ethanol/H2O/DMSO 5/3/2 was measured at 341 nm and λmax UV absorbance of Compound #20 was measured at 344 nm.
λmax UV absorbance of bemotrizinol in ethanol/benzyl alcohol/DMSO/Phenoxyethanol 63/18/10/9 was measured at 342 nm and λmax UV absorbance of Compound #21 was measured at 342 nm.
λmax UV absorbance of Octocrylene in ethanol was measured at 304 nm and Amax UV absorbance of Compound #23 was measured at 304 nm.

Series [3] in a line: Adhesion on thiolated polylysine matrix (UV absorbance of coated 96-well microplates). The settings on record: UV absorbance at 300 nm; overnight incubation in ethanol/PBS (90%/10%); washed 10 times with ethanol. How it is done: (§1) Polylysine and Polylysine enriched in SH by thiolation of primary amines using Traut's reagent were used for coating 96-well microplates. Compound #23 (OOM) incubated overnight under orbital agitation on the different matrices (n=3 for each condition) (uncoated wells were used as negative controls), in an ethanol/PBS (90%/10%) solution. After incubation, each microplate well was thoroughly washed 10 times with ethanol, before measuring UV absorbance. Whole UV/Visible absorbance spectrum from 220 to 1000 nm were measured in the center of each microplate well. In addition, specific UV absorbance at 300 nm was measured by matrix scan over the whole the well as a 10×10 matrix.

Series [4] can be described thus: Adhesion on polylysine matrix, non thiolated (UV absorbance of coated 96-well microplates). Conditions: UV absorbance at 300 nm; overnight incubation in ethanol/PBS (90%/10%); washed 10 times with ethanol. On the procedure:
as §1

The next series deals with pig skin. As to the kind of experiment: UVB protection ex vivo on pig skin by autofluorescence quenching. The settings on record: for UVB Fluorescence (Ex300/Em460), autofluorescence of pig skin: 4 h incubation at 37° C. in Dottisol, Mean ± SD, N = 3. On the procedure:
UVB protection has been assessed ex vivo on pig skin by measuring the autofluorescence quenching. OOM (Compound #23) and OCR (Octocrylene) were solubilized at the same molar concentration in Dottisol (isosorbide dimethyl ether), then covered 6.25 cm^2 skin square and incubated 4 hours at 37° C., washed or not with 10 mL Ethanol for 5 min on agitation. Then 7 mm diameter skin punches were cut and placed in a black 96-well plate. UVB protection was measured after respectively an excitation at 300 nm and a fluorescence emission was read at 460 nm.

[5] abbreviates: equimolar cysteine:compound solution (two molar equivalents for compounds with two maleimides).
Setting [6] is: excess of cysteine (five or ten times molar compound concentration).
Where [7] appears, read: in ethanol/benzyl alcohol/DMSO/Phenoxyethanol 63/18/10/9.
Where [8] appears, read: EtOH Wash (10 mL Ethanol, 5 min).

As for `CCN(CC)c1ccc(C(=O)c2ccccc2C(=O)OCCOCCNC(=O)CCN2C(=O)C=CC2=O)c(O)c1` [Compound #16, 2-[4-(diethylamino)-2-hydroxybenzoyl]-benzoic acid, 2-[2-[3-(2,5-dioxopyrrol-1-yl)propanoylamino]ethoxy]ethyl ester], the results for the Cysteine-bound compound in series [1] (setting [5]) and in series [1] (setting [6]) were 75% and 92%, respectively. Further, the Free compound in series [1] (setting [5]) turned out to be 25%; in series [1] (setting [6]) it was 8%. Moreover, the “λmax UV absorbance” value in series [2] (in ethanol/DMSO 9/1) was 357 nm.

With `CCN(CC)c1ccc(C(=O)c2ccccc2C(=O)OCCNC(=O)CCN2C(=O)C=CC2=O)c(O)c1` [Compound #17, 2-[4-(diethylamino)-2-hydroxy-benzoyl]benzoic acid, 2-[3-(2,5-dioxopyrrol-1-yl)propanoylamino]ethyl ester], in series [1] (setting [5]), the Cysteine-bound compound was determined as 78% and the Free compound is given as 22%. The “λmax UV absorbance” value in series [2] (in ethanol/DMSO 9/1) amounted to 357 nm.

Regarding `N#CC(C(=O)NCCNC(=O)CCN1C(=O)C=CC1=O)=C(c1ccccc1)c1ccccc1` [Compound #18, 2-cyano-N-[2-[3-(2,5-dioxopyrrol-1-yl)propanoylamino]ethyl]-3,3-diphenyl-prop-2-enamide], in series [1] (setting [5]), the Cysteine-bound compound is 73% and the Free compound is given as 27%. In series [1] (setting [6]), this molecule displayed a Cysteine-bound compound of 99% and a Free compound of 1%. Besides, the “λmax UV absorbance” value in series [2] (in ethanol/DMSO 9/1) turned out to be 293 nm.

For `N#CC(C(=O)OCCS(=O)(=O)CCNC(=O)CCN1C(=O)C=CC1=O)=C(c1ccccc1)c1ccccc1` [Compound #19, 2-cyano-3,3-diphenyl-prop-2-enoate, 2-[2-[3-(2,5-dioxopyrrol-1-yl)propanoylamino]ethylsulfonyl]ethyl ester], in series [1] (setting [5]), the Cysteine-bound compound came to 71% and the Free compound is on record as 29%. Besides, the “λmax UV absorbance” value in series [2] (in ethanol/DMSO 9/1) is on record as 308 nm.

On to `CC1(C)C2CCC1(CS(=O)(=O)NCCNC(=O)CCN1C(=O)C=CC1=O)C(=O)/C2=C\c1ccc(/C=C2\C(=O)C3(CS(=O)(=O)NCCNC(=O)CCN4C(=O)C=CC4=O)CCC2C3(C)C)cc1` [Compound #20, 3-(2,5-dioxopyrrol-1-yl)-N-[2-[[(3Z)-3-[[4-[(Z)-[4-[2-[3-(2,5-dioxopyrrol-1-yl)propanoylamino]ethylsulfamoylmethyl]-7,7-dimethyl-3-oxo-norbornan-2-ylidene]methyl]phenyl]methylene]-7,7-dimethyl-2-oxo-norbornan-1-yl]methylsulfonylamino]ethyl]propanamide], for which, in series [1] (setting [5]), the Cysteine-bound compound worked out at 85% and the Free compound is 15%. In series [1] (setting [6]), the Cysteine-bound compound is 100% and the Free compound is reported as 0%. Further, the “λmax UV absorbance” value in series [2] (in Ethanol/H2O/DMSO 5/3/2) was 344 nm.

Consider `COc1ccc(-c2nc(-c3ccc(OCCCNC(=O)CCN4C(=O)C=CC4=O)cc3O)nc(-c3ccc(OCCCNC(=O)CCN4C(=O)C=CC4=O)cc3O)n2)cc1` [Compound #21, 3-(2,5-dioxopyrrol-1-yl)-N-[3-[4-[4-[4-[3-[3-(2,5-dioxopyrrol-1-yl)propanoylamino]propoxy]-2-hydroxy-phenyl]-6-(4-methoxyphenyl)-1,3,5-triazin-2-yl]-3-hydroxy-phenoxy]propyl]propanamide], for which the “λmax UV absorbance” value in series [2] (setting [7]) was 342 nm.

Take `N#CC(C(=O)OCCCCCCCCNC(=O)CCN1C(=O)C=CC1=O)=C(c1ccccc1)c1ccccc1` [Compound #23, 8-(3-(2,5-dioxo-2,5-dihydro-1H-pyrrol-1-yl)propanamido)octyl 2-cyano-3,3-diphenylacrylate]: in series [3], the “bio adhesion on thiolated polylysine matrix” value is reported as “showed a bio adhesion”. In addition, the Cysteine-bound compound in series [1] (setting [5]) and in series [1] (setting [6]) was 100% in each case. Also, the Free compound in series [1] (setting [5]) and in series [1] (setting [6]) was 0% each time. Besides, the “bioadhesion on polylysine matrix (non thiolated)” value in series [4] was “no bioadhesion”. Further, the “λmax UV absorbance” value in series [2] (in ethanol) worked out at 304 nm. Further, the figures for the “UVB Fluorescence (Ex300/Em460), autofluorescence of pig skin” value in the series on pig skin (setting [8]) and in the series with pig skin (No Wash) were 34870 ± 2729 and 25544 ± 3797, respectively. Further, the “reduction of UVB protection after ethanol wash compared to the initial protection before washing” value in the series on pig skin (ethanol wash) stood at 30%. In addition, the “bio adhesion on pig skin (conclusion)” value in the series with pig skin (retention of UVB protection after ethanol wash) is reported as “bio adhesive”. The “UVB protection of the pig skin compared with octocrylene (OCR)” value with pig skin (same molar concentration, no wash) is reported as “more than two times higher”.

For `CC1(C)C2CCC1(CS(=O)(=O)O)C(=O)C2=Cc1ccc(C=C2C(=O)C3(CS(=O)(=O)O)CCC2C3(C)C)cc1` [Ecamsule, terephtalylidene dicamphor sulfonic acid, reference compound], the “λmax UV absorbance” value in series [2] (in Ethanol/H2O/DMSO 5/3/2) worked out at 341 nm.

As to `CCCCC(CC)COC(=O)C(C#N)=C(c1ccccc1)c1ccccc1` (stereo not shown) [Octocrylene, reference compound], the “bio adhesion on thiolated polylysine matrix” value in series [3] was “did not show a bio adhesion”. Also, the “λmax UV absorbance” value in series [2] (in ethanol) was found to be 304 nm; in series [2] (in ethanol/DMSO 9/1), 305 nm. Besides, the “UVB Fluorescence (Ex300/Em460), autofluorescence of pig skin” value in the series on pig skin (setting [8]) was determined as 201968 ± 11493; in the series on pig skin (No Wash), 64781 ± 3246. In the series with pig skin (ethanol wash), the “UVB protection after the ethanol washing step” value is reported as “corresponds to the unprotected control”.

Regarding `CCCCC(CC)COc1ccc(-c2nc(-c3ccc(OC)cc3)nc(-c3ccc(OCC(CC)CCCC)cc3O)n2)c(O)c1` (stereo not shown) [bemotrizinol, reference compound], the “λmax UV absorbance” value in series [2] (setting [7]) was 342 nm.

On to `CCCCCCOC(=O)c1ccccc1C(=O)c1ccc(N(CC)CC)cc1O` [diethylamino hydroxybenzoyl hexyl benzoate, reference compound], for which the “λmax UV absorbance” value in series [2] (in ethanol/DMSO 9/1) stood at 357 nm.

For the origin of these results see patent US20230323028A1, “ADHESIVE PHOTOPROTECTIVE COMPOUNDS AND USES THEREOF” (SKINOSIVE, priority 2019, published 2023).
